Broadly, the IC50 is the midpoint of a concentration-inhibition curve. A higher IC50 goes with a need for much substance.

The record followed here is ChEMBL document CHEMBL1146954, “Design and synthesis of 7H-pyrrolo[2,3-d]pyrimidines as focal adhesion kinase inhibitors. Part 1” (Bioorg Med Chem Lett, 2006).

For the experiment, the target named is Focal adhesion kinase 1 (Homo sapiens, UniProt Q05397). The experiment can be described thus: Inhibitory activity against FAK.
Sequence of Focal adhesion kinase 1 (Q05397 whole entry): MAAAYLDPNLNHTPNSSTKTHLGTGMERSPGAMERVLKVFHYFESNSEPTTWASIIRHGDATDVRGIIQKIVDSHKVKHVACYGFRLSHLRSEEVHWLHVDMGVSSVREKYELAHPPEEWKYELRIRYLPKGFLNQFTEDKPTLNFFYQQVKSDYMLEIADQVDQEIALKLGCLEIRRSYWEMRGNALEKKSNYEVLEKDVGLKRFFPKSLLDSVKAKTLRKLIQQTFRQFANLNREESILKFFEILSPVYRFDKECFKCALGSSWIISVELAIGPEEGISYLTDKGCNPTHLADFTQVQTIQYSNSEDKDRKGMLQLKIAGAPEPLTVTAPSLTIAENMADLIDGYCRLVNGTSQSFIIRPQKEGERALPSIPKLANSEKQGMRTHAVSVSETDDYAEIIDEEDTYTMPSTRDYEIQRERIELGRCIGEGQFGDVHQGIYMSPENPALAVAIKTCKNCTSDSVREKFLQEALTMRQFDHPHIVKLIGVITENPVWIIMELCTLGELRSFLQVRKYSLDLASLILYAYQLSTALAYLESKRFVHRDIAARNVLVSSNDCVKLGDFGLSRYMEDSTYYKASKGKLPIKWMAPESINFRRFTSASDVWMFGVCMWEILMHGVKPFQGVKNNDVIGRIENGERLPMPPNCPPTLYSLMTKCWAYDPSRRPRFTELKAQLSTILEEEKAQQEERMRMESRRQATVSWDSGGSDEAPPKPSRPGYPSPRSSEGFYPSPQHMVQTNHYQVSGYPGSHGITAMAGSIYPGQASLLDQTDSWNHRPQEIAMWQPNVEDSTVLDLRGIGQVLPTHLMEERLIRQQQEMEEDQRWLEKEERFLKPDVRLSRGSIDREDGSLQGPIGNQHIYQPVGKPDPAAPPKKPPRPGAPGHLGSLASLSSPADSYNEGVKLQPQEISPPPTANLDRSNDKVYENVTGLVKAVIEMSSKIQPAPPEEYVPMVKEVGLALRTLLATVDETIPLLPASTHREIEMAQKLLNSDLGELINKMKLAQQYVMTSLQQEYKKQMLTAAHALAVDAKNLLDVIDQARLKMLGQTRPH

For `COc1cc(Nc2ncc(Br)c(Nc3ccccn3)n2)cc(OC)c1OC`, half-maximal inhibition (IC50) was put at 100 nM.
Next, `COc1cc(Nc2ncc3ccn(-c4ccccn4)c3n2)cc(OC)c1OC`: 200 nM.
